# US20240382548A1, “COMPOSITIONS COMPRISING CASTANEA SATIVA EXTRACTS FOR TREATMENT OF HELICOBACTER PYLORI INFECTIONS” (priority 2021, published 2024)
# Like-named read-outs stand apart in the source and are kept apart here.
# Key:
# H. pylori = assay: Antibacterial activity (MIC) on a strain of H. pylori; assay type: cell-based; settings: Helicobacter pylori; for MIC: read-out: MIC on H. pylori
# Method: The antibacterial activity of the chestnut extract was evaluated by measuring the MIC (Minimum Inhibitory Concentration) on a strain of H. pylori.
# [1] = test system: non-tumoral human gastric epithelial cells GES-1; assay type: cell-based; settings: 10-50 μM concentration range
# Method: Firstly, the extract was analysed to establish its possible cytotoxicity (using the MTT colorimetric assay) towards non-tumoral human gastric epithelial cells GES-1 in the presence of H. pylori (ratio 1:50).
# [2] = test system: IL-8 release induced by H. pylori in GES-1 cells; assay: IL-8 release induced by H. pylori in GES-1 cells; assay type: cell-based, human; settings: for effect on IL-8 release induced by the pathogen: 10-50 μM
# Method: At the same concentrations, the extract inhibits IL-8 release induced by H. pylori in GES-1 cells; the pathogen induces IL-8 release in gastric epithelial cells, of about a 20-fold increase compared with the unstimulated control. […] EGCG 50 μM (50% inhibition) was used as a positive control.
# [3] = test system: nuclear transcription factor NF-κB; assay: NF-κB-guided transcription (luciferase reporter) induced by H. pylori; assay type: cell-based; settings: 50 μM, positive control
# Method: The nuclear transcription factor NF-κB is involved in inflammation of the gastric epithelium induced by H. pylori and is also responsible for increased expression of pro-inflammatory genes, including IL-8, in the gastric cells. […] The cells were 20 subjected to transient transfection with a plasmid containing three KB responsive sites upstream of the gene encoding for luciferase; the cells then underwent treatment with the pathogen, and the transcription was measured after 6 hours by luminescence.
structure (smiles),measurement,setting,value
"CN(C)[C@@H]1C(O)=C(C(N)=O)C(=O)[C@@]2(O)C(O)=C3C(=O)c4c(O)cccc4[C@@](C)(O)[C@H]3C[C@@H]12 [Tetracycline, reference compound]",inhibition at 0.25 µg/mL,"H. pylori; 0.25 μg/mL, positive control, read-out: inhibition of the growth of the pathogen",80%
O=C1OCC2OC(=O)c3cc(O)c(O)c(O)c3-c3c(O)c(O)c(O)c4c3C(=O)OC(C2OC(=O)c2cc(O)c(O)c(O)c2-c2c1cc(O)c(O)c2O)C1OC(=O)c2c-4c(O)c(O)c(O)c2C1O (stereo not drawn) [vescalagin],toxicity,[1],did not exhibit any toxicity
same,effect on IL-8 release induced by the pathogen,[2],concentration-dependent inhibition
same,MIC,H. pylori,25 µM
"O=C(O[C@@H]1Cc2c(O)cc(O)cc2O[C@@H]1c1cc(O)c(O)c(O)c1)c1cc(O)c(O)c(O)c1 [EGCG, epigallocatechin gallate, reference compound]",inhibition of IL-8 release,"[2]; 50 μM, positive control",50%
same,inhibition of NF-κB-guided transcription,[3],63%
O=C1OC[C@H]2OC(=O)c3cc(O)c(O)c(O)c3-c3c(O)c(O)c(O)c4c3C(=O)O[C@H]([C@H]3OC(=O)c5c-4c(O)c(O)c(O)c5[C@H]3O)[C@@H]2OC(=O)c2cc(O)c(O)c(O)c2-c2c1cc(O)c(O)c2O [castalagin],toxicity,[1],did not exhibit any toxicity
same,effect on IL-8 release induced by the pathogen,[2],concentration-dependent inhibition
same,MIC,H. pylori; same experimental conditions as the extract,25 µM
